Assay results as given in ChEMBL document CHEMBL1201862, “PubChem BioAssay data set” (2004).
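1) Cells in 96-well plates. 2) Compound, 48 h, 5 concentrations. 3) Linear interpolation between surrounding doses. 4) Unreached endpoint = highest concentration. Here, GI50 denotes the concentration required for 50% inhibition of growth.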 Activity calls are given as the source filed them. Cut-off read from the data, not from the text of the source: active = GI50 up to about 1.1 µM and inactive = higher.

Key:
Assay in all cases: inhibition of tumour cell growth, NCI panel, 48 h
U-251 = system: U-251
HOP-92 = system: HOP-92
OVCAR-8 = system: OVCAR-8
KM12 = system: KM12
LXFL 529 = system: LXFL 529
NCI-H460 = system: NCI-H460
DMS-114 = system: DMS-114
HCT-15 = system: HCT-15
SF-295 = system: SF-295
SF-539 = system: SF-539
DMS-273 = system: DMS-273
UO-31 = system: UO-31
EKVX = system: EKVX
CCRF-CEM = system: CCRF-CEM
HOP-62 = system: HOP-62
SW-620 = system: SW-620
CAKI-1 = system: CAKI-1
M14 = system: M14
SN12C = system: SN12C
SK-MEL-28 = system: SK-MEL-28
UACC-257 = system: UACC-257
LOX IMVI = system: LOX IMVI
SK-MEL-5 = system: SK-MEL-5
K562 = system: K562
OVCAR-4 = system: OVCAR-4
RXF 631 = system: RXF 631
NCI-H522 = system: NCI-H522
COLO 205 = system: COLO 205
OVCAR-5 = system: OVCAR-5
M19-MEL = system: M19-MEL
Malme-3M = system: Malme-3M
UACC-62 = system: UACC-62
SF-268 = system: SF-268
TK-10 = system: TK-10
786-0 = system: 786-0
SK-OV-3 = system: SK-OV-3
ACHN = system: ACHN
SK-MEL-2 = system: SK-MEL-2
RPMI-8226 = system: RPMI-8226
MOLT-4 = system: MOLT-4
HOP-18 = system: HOP-18
A549 = system: A549
SNB-75 = system: SNB-75
IGROV-1 = system: IGROV-1
XF498 = system: XF498
OVCAR-3 = system: OVCAR-3
HL-60 = system: HL-60
RXF 393 = system: RXF 393
KM-20L2 = system: KM-20L2
HT-29 = system: HT-29
SNB-19 = system: SNB-19
A498 = system: A498
NCI-H23 = system: NCI-H23
SNB-78 = system: SNB-78
HCT-116 = system: HCT-116
DLD-1 = system: DLD-1
NCI-H226 = system: NCI-H226

C[N+](C)(C)CC(CC(=O)[O-])C1CC1 (stereo unspecified)
GI50 (U-251): > 100 µM (inactive) | GI50 (HOP-92): > 100 µM (inactive) | GI50 (OVCAR-8): > 100 µM (inactive) | GI50 (KM12): > 100 µM (inactive) | GI50 (LXFL 529): > 100 µM (inactive) | GI50 (NCI-H460): > 100 µM (inactive) | GI50 (DMS-114): > 100 µM (inactive) | GI50 (HCT-15): > 100 µM | GI50 (SF-295): > 100 µM (inactive) | GI50 (SF-539): > 100 µM (inactive) | GI50 (DMS-273): > 100 µM (inactive) | GI50 (UO-31): > 100 µM (inactive) | GI50 (EKVX): > 100 µM (inactive) | GI50 (CCRF-CEM): > 100 µM (inactive) | GI50 (HOP-62): > 100 µM (inactive) | GI50 (SW-620): > 100 µM (inactive) | GI50 (CAKI-1): > 100 µM (inactive) | GI50 (M14): > 100 µM (inactive) | GI50 (SN12C): > 100 µM (inactive) | GI50 (SK-MEL-28): > 100 µM (inactive) | GI50 (UACC-257): > 100 µM (inactive) | GI50 (LOX IMVI): > 100 µM (inactive) | GI50 (SK-MEL-5): > 100 µM (inactive) | GI50 (K562): > 100 µM (inactive) | GI50 (OVCAR-4): > 100 µM (inactive) | GI50 (RXF 631): > 100 µM (inactive) | GI50 (NCI-H522): > 100 µM (inactive) | GI50 (COLO 205): > 100 µM (inactive) | GI50 (OVCAR-5): > 100 µM (inactive) | GI50 (M19-MEL): > 100 µM (inactive) | GI50 (Malme-3M): > 100 µM (inactive) | GI50 (UACC-62): > 100 µM (inactive) | GI50 (SF-268): > 100 µM (inactive) | GI50 (TK-10): > 100 µM (inactive) | GI50 (786-0): > 100 µM (inactive) | GI50 (SK-OV-3): > 100 µM (inactive) | GI50 (ACHN): > 100 µM (inactive) | GI50 (SK-MEL-2): > 100 µM (inactive) | GI50 (RPMI-8226): > 100 µM (inactive) | GI50 (MOLT-4): > 100 µM (inactive) | GI50 (HOP-18): > 100 µM (inactive) | GI50 (A549): > 100 µM (inactive) | GI50 (SNB-75): > 100 µM (inactive) | GI50 (IGROV-1): > 100 µM (inactive) | GI50 (XF498): > 100 µM (inactive) | GI50 (OVCAR-3): > 100 µM (inactive) | GI50 (HL-60): > 100 µM (inactive) | GI50 (RXF 393): > 100 µM (inactive) | GI50 (KM-20L2): > 100 µM (inactive) | GI50 (HT-29): > 100 µM (inactive) | GI50 (SNB-19): > 100 µM (inactive) | GI50 (A498): > 100 µM (inactive) | GI50 (NCI-H23): > 100 µM (inactive)

O=C1c2ccccc2CC1C1(O)C(=O)Nc2ccccc21 (stereo unspecified)
GI50 (HOP-92): > 100 µM (inactive) | GI50 (OVCAR-8): > 100 µM (inactive) | GI50 (LXFL 529): > 100 µM (inactive) | GI50 (NCI-H460): > 100 µM (inactive) | GI50 (DMS-114): > 100 µM (inactive) | GI50 (HCT-15): > 100 µM | GI50 (SF-295): > 100 µM (inactive) | GI50 (SF-539): > 100 µM (inactive) | GI50 (DMS-273): > 100 µM (inactive) | GI50 (SNB-78): > 100 µM (inactive) | GI50 (UO-31): 34.6 µM (inactive) | GI50 (EKVX): > 100 µM (inactive) | GI50 (HCT-116): > 100 µM (inactive) | GI50 (HOP-62): > 100 µM (inactive) | GI50 (SW-620): > 100 µM (inactive) | GI50 (CAKI-1): > 100 µM (inactive) | GI50 (M14): > 100 µM (inactive) | GI50 (SN12C): > 100 µM (inactive) | GI50 (SK-MEL-28): > 100 µM (inactive) | GI50 (UACC-257): > 100 µM (inactive) | GI50 (LOX IMVI): > 100 µM (inactive) | GI50 (SK-MEL-5): > 100 µM (inactive) | GI50 (K562): > 100 µM (inactive) | GI50 (OVCAR-4): > 100 µM (inactive) | GI50 (RXF 631): > 100 µM (inactive) | GI50 (NCI-H522): > 100 µM (inactive) | GI50 (COLO 205): > 100 µM (inactive) | GI50 (OVCAR-5): > 100 µM (inactive) | GI50 (M19-MEL): > 100 µM (inactive) | GI50 (Malme-3M): > 100 µM (inactive) | GI50 (UACC-62): > 100 µM (inactive) | GI50 (SF-268): > 100 µM (inactive) | GI50 (TK-10): > 100 µM (inactive) | GI50 (786-0): > 100 µM (inactive) | GI50 (SK-OV-3): > 100 µM (inactive) | GI50 (ACHN): > 100 µM (inactive) | GI50 (SK-MEL-2): > 100 µM (inactive) | GI50 (DLD-1): > 100 µM (inactive) | GI50 (RPMI-8226): > 100 µM (inactive) | GI50 (MOLT-4): > 100 µM (inactive) | GI50 (NCI-H226): > 100 µM (inactive) | GI50 (A549): > 100 µM (inactive) | GI50 (SNB-75): 87.3 µM (inactive) | GI50 (IGROV-1): > 100 µM (inactive) | GI50 (XF498): 55.6 µM (inactive) | GI50 (OVCAR-3): > 100 µM (inactive) | GI50 (HL-60): > 100 µM (inactive) | GI50 (RXF 393): > 100 µM (inactive) | GI50 (KM-20L2): > 100 µM (inactive) | GI50 (HT-29): > 100 µM (inactive) | GI50 (SNB-19): > 100 µM (inactive) | GI50 (A498): > 100 µM (inactive) | GI50 (NCI-H23): > 100 µM (inactive)
